What all share (assay type): biochemical
Assay [1] concerns the target T1, Cathepsin B (exopeptidase a.) (Homo sapiens, UniProt P07858).
T1 construct: made in house; host or cells: E. coli
Kind of assay: Ki against cathepsin B exopeptidase activity (Abz-GIVRAK(Dnp)-OH). Particulars: SigmaPlot at 3 different substrate concentrations; pH 5.0. On the procedure: (§1) Recombinant or native human cathepsins were used: recombinant cathepsin X and cathepsin S were expressed in Pichia pastoris, recombinant cathepsins B and L in E. coli, [43], native cathepsin H was isolated from human liver. Assay buffers for determining activities of cathepsins X and L consisted of 100 mM sodium acetate buffer, pH 5.5, for cathepsins H, S and B (endopeptidase activity) of 100 mM phosphate buffer pH 6.8, 6.5 and 6.0, respectively and for cathepsin B (exopeptidase activity) of 60 mM acetate buffer pH 5.0. Each assay buffer contained 0.01% Triton X-100 to prevent false positive inhibition due to aggregation of compounds[45], 5 mM cysteine, 1.5 mM EDTA and 0.1% PEG 8000. Enzymes were activated at 37 °C for 5 min before the assays.
(§2) Ki was determined by measuring the initial rate of hydrolysis at three different substrate concentrations (Supplementary Table S2) in the presence of seven different compound concentrations (0, 20, 40, 60, 80, 100 and 200 μM). 90 μL of the activated cathepsin was added to a black 96-well plate with 5 μL of the substrate and 5 μL of the compound. Formation of the fluorescent degradation product was monitored continuously at 460 nm ± 10 nm with excitation at 380 nm ± 20 nm (for AMC substrates) and, as noted above for Abz substrates, at 37 °C. All measurements were performed twice and in duplicate. The resulting data were analyzed by non-linear regression using the software SigmaPlot®, Enzyme Kinetics Module™ 1.3 and were fitted to the equation v = v max [S]/([S] (1 + [I]/αK i ) + K m (1 + [I]/K i )) (first group of compounds). For Ki determination against cathepsin X for the compounds from the second group, progress curves in the absence and presence of each putative inhibitor were fitted to the reaction mechanism presented in Fig. 3b. In this case the resulting data as well as reactivation curves were fitted to the equation system presented in Fig. 3c using ENZO application. For calculation of kinetic parameters from reaction progress curves the fluorescence coefficient for conversion of arbitrary fluorescence units to concentration was first determined. The fluorescence coefficient was calculated as the slope from the plot of initial substrate concentration vs. height of the plateau of the progress curve after complete hydrolysis of increasing concentrations of substrate, using linear regression.
(§3) Supplementary Table S2. Substrates used for the various cathepsins and their concentrations […]
(§4) Enzyme Substrate Concentration (µM) Reference/Company cathepsin X Abz-FEK(Dnp)-OH 3.25, 6.5, 13 Puzer et al.3 cathepsin B - endopept. Z-RR-AMC 60, 180, 360 Bachem cathepsin B - exopept. Abz-GIVRAK(Dnp)-OH 1, 3, 6 Bachem cathepsin S Z-VVR-AMC 0.5, 1, 1.5 Biomol cathepsin L Z-FR-AMC 0.5, 1, 4 Bachem cathepsin H Z-R-AMC 20, 80, 160 Biomol […]

Assay [2] has as its target cathepsin X (Homo sapiens, UniProt Q9UBR2). Kind of assay: Determination of Ki values and inhibition mechanism against cathepsin X (Abz-FEK(Dnp)-OH substrate). Particulars: second group. Details: made in house; host or cells: Pichia pastoris. As for the experimental part: as §1, §2, §3, §4
Assay [3] addresses T2, Cathepsin S (Homo sapiens, UniProt P25774).
T2 construct: made in house; host or cells: Pichia pastoris
The assay can be described thus: Ki against cathepsin S (Z-VVR-AMC). Particulars: SigmaPlot at 3 different substrate concentrations; pH 6.5. On the procedure: as §1, §2, §3, §4

Sequence of cathepsin X (Q9UBR2 62-303): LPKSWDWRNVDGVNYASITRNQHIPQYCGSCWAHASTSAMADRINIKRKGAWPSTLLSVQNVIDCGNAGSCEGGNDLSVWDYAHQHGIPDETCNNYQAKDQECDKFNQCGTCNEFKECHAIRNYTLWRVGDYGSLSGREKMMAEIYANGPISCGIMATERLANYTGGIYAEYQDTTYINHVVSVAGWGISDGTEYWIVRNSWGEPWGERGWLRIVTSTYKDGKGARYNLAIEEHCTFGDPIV
T2 sequence (P25774 115-331): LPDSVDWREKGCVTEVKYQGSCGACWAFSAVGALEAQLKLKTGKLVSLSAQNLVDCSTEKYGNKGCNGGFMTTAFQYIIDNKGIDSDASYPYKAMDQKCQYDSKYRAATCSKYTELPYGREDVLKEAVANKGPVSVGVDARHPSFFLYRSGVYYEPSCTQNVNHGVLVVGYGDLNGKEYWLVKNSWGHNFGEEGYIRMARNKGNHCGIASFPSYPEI

As to `CC(C)n1cnnc1SCC(=O)c1ccc2c(c1)OCCO2` [Compound 22, 1-(2,3-Dihydrobenzo[b][1,4]dioxin-6-yl)-2-((4-isopropyl-4H-1,2,4-triazol-3-yl)thio)ethan-1-one], the Ki (in general, the equilibrium dissociation constant of an inhibitor or competing ligand from its target) is 306 ± 38.1 µM in assay [1] and 2.45 ± 0.05 µM in assay [2] (progress curve analysis with ENZO). Moreover, the Inhibition mechanism result in assay [2] (ENZO) is listed as “competitive”. Besides, the “Ki Cathepsin S” value in assay [3] is on record as “n.i”.

The values are drawn from article PMC5597618, “Identification and characterization of the novel reversible and selective cathepsin X inhibitors” (Scientific Reports, 2017).
